Source: the kinase profiling compilation of Christmann-Franck et al. (2016)

How the values were obtained:
Assay in all cases: KINOMEscan competition binding
Conditions in all cases: compound 10.0 µM
[1] = target: CHUK (human) (UniProt O15111)
[2] = target: SGK110 (human) (UniProt P0C264)
[3] = target: AXL (human) (UniProt P30530)
[4] = target: DDR2 (human) (UniProt Q16832)
[5] = target: FLT4 (human) (UniProt P35916)
[6] = target: MAP2K2 (human) (UniProt P36507)
[7] = target: SRC (human) (UniProt P12931)
[8] = target: CAMK2D (human) (UniProt Q13557)
Chain of CAMK2D (human) (Q13557 whole entry, looked up): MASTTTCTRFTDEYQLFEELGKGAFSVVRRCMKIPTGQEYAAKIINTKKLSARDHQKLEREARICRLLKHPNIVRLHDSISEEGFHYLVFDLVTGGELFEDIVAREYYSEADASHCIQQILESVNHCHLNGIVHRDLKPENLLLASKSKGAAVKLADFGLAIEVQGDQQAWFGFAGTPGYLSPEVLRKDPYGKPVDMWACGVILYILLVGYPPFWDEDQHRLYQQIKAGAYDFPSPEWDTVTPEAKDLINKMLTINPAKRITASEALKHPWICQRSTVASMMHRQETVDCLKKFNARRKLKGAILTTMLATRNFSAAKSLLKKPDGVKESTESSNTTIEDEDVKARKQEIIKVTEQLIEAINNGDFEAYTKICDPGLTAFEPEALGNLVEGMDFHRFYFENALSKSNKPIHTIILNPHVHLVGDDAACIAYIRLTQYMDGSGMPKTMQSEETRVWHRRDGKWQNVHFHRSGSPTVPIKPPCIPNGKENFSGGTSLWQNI

[9] = target: MARK1 (human) (UniProt Q9P0L2)
[10] = target: ROCK2 (human) (UniProt O75116)
[11] = target: MST1R (human) (UniProt Q04912)
[12] = target: SRPK1 (human) (UniProt Q96SB4)
[13] = target: RET (human) (UniProt P07949)
[14] = target: PAK1 (human) (UniProt Q13153)
[15] = system: RET (human), P07949 [V804M]
[16] = target: MAPK1 (human) (UniProt P28482)
[17] = target: EPHA8 (human) (UniProt P29322)
[18] = target: RIOK3 (human) (UniProt O14730)
Chain of RIOK3 (human) (O14730 whole entry, looked up): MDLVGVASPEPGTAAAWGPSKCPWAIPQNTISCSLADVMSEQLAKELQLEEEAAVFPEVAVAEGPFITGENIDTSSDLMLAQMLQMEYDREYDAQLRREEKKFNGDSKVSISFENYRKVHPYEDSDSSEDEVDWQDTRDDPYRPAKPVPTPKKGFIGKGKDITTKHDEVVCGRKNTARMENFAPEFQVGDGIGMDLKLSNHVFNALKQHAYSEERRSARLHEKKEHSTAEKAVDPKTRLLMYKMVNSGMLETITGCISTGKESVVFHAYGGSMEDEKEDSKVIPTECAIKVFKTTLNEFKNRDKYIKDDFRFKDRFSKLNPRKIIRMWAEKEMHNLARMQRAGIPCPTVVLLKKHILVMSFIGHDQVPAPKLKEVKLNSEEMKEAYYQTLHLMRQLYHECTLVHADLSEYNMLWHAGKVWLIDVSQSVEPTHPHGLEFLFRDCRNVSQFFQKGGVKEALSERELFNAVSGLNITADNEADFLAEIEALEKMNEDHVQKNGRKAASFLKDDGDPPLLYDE

[19] = target: CSNK2A2 (human) (UniProt P19784)
Chain of CSNK2A2 (human) (P19784 whole entry, looked up): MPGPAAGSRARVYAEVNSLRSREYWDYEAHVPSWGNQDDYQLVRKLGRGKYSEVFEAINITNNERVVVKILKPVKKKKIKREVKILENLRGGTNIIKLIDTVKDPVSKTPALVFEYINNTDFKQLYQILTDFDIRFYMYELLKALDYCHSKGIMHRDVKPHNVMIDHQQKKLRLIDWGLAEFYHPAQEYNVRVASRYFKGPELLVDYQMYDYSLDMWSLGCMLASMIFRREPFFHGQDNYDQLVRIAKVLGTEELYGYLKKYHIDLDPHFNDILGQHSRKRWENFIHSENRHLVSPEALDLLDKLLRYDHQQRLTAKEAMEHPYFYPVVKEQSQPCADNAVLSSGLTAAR

[20] = target: BRSK1 (human) (UniProt Q8TDC3)
Chain of BRSK1 (human) (Q8TDC3 whole entry, looked up): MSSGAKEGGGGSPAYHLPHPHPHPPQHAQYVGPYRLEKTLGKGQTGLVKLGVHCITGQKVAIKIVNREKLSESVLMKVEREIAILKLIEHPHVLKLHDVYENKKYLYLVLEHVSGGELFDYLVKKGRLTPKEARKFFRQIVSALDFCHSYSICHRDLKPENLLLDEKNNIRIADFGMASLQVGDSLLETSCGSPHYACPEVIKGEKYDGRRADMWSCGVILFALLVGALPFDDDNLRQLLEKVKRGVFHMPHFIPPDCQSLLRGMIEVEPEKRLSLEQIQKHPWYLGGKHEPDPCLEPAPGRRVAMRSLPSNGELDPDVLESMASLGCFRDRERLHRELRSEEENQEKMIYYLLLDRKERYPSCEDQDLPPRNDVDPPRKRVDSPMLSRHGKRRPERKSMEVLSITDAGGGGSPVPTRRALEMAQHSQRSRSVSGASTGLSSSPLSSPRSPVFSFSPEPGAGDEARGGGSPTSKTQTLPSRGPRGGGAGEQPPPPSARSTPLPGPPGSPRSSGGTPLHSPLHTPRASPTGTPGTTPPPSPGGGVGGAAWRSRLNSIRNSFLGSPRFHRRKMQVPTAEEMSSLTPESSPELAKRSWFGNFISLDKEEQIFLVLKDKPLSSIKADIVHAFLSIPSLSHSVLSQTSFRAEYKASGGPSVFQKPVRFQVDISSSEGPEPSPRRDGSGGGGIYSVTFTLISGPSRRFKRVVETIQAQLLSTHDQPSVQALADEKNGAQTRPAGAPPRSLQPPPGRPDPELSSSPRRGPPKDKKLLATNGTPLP

[21] = target: MAP2K1 (human) (UniProt Q02750)
[22] = target: RPS6KA5 KD2 (human) (UniProt O75582)
[23] = target: MAP2K3 (human) (UniProt P46734)
[24] = target: CLK1 (human) (UniProt P49759)
[25] = target: TNK2 (human) (UniProt Q07912)
[26] = target: TYK2 JH2 pseudokinase (human) (UniProt P29597)
Chain of TYK2 JH2 pseudokinase (human) (P29597 whole entry, looked up): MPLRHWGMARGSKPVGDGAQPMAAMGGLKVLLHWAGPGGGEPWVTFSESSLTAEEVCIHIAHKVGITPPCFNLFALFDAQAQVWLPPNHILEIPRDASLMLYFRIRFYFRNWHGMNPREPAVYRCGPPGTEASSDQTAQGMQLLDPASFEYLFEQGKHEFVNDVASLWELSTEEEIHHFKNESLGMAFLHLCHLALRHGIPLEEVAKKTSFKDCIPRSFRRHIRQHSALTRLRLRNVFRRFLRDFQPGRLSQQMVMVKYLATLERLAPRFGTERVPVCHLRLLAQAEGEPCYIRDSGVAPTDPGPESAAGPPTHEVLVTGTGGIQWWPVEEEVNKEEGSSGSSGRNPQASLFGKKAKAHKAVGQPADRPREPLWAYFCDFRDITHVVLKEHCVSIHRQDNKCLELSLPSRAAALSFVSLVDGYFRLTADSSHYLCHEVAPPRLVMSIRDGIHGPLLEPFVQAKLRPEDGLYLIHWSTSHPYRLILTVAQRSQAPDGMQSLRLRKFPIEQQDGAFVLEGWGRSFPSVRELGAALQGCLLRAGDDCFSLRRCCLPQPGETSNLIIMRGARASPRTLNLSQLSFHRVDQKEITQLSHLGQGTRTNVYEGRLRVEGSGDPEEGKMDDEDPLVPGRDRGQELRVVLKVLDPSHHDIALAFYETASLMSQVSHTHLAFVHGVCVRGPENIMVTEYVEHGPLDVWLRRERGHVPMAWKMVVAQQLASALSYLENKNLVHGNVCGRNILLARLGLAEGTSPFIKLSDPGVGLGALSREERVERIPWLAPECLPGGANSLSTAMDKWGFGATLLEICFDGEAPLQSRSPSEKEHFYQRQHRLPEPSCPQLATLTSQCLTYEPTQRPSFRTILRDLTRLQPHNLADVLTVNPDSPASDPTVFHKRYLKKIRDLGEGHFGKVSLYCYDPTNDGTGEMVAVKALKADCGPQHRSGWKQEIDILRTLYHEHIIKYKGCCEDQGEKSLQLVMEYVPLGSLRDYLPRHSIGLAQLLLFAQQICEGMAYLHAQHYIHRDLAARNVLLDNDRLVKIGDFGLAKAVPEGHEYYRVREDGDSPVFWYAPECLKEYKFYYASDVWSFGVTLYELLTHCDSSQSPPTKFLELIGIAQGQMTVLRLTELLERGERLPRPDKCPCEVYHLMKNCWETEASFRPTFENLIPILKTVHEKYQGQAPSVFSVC

[27] = target: PIM3 (human) (UniProt Q86V86)
[28] = target: LIMK2 (human) (UniProt P53671)
[29] = target: CSNK2A1 (human) (UniProt P68400)
Chain of CSNK2A1 (human) (P68400 whole entry, looked up): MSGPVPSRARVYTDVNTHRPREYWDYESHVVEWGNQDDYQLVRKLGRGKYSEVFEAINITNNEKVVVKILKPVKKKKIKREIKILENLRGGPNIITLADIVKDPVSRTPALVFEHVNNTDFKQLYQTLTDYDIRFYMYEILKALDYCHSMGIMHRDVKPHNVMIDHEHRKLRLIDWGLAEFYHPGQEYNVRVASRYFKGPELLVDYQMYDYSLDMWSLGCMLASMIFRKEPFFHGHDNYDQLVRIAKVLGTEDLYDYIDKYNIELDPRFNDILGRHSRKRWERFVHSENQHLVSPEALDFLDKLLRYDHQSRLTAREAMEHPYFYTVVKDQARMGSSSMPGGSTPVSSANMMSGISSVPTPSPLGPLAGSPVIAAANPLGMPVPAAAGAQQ

[30] = target: MAP3K9 (human) (UniProt P80192)
[31] = system: MET (human), P08581 [Y1235D]
[32] = target: DYRK1A (human) (UniProt Q13627)
[33] = target: IRAK1 (human) (UniProt P51617)
[34] = target: MAPK12 (human) (UniProt P53778)
[35] = target: EGFR (human) (UniProt P00533)

Measured: kinase still bound, per cent of control

Chain of AXL (human) (P30530 whole entry, looked up): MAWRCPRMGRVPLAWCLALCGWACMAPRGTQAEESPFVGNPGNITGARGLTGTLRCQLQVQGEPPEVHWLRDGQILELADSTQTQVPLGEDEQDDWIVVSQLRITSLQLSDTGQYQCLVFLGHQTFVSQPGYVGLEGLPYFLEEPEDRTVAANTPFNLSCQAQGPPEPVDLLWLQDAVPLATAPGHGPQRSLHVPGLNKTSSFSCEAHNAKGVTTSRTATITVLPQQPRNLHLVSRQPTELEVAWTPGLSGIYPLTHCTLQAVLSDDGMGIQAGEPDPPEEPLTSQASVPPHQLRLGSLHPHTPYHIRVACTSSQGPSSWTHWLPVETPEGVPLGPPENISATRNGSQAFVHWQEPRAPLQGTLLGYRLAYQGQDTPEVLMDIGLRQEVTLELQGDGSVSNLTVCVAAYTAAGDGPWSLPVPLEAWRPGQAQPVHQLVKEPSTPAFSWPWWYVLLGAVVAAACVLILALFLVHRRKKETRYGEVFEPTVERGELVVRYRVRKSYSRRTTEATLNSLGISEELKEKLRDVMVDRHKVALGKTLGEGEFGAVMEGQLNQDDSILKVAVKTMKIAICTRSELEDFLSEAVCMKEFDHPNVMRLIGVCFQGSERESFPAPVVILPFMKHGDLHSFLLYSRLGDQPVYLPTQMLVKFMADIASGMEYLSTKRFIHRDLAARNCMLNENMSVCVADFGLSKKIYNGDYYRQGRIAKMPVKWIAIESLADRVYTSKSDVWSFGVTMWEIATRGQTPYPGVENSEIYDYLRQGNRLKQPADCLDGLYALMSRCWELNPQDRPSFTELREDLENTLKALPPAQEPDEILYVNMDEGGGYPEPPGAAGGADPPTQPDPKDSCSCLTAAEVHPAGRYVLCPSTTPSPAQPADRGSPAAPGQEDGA
Chain of SGK110 (human) (P0C264 whole entry, looked up): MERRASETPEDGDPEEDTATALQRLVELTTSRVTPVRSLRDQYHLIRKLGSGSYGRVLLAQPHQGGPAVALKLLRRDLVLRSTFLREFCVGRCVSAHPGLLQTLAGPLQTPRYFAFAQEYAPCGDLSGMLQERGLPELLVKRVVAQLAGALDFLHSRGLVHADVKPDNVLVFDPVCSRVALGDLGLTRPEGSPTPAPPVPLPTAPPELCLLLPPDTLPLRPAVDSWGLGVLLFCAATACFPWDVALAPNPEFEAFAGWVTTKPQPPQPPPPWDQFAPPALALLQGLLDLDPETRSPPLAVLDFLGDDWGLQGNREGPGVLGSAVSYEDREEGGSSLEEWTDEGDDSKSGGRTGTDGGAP

Cc1n[nH]c2ccc(-c3cncc(OC[C@@H](N)Cc4c[nH]c5ccccc45)c3)cc12
14%: [3]
1%: [1]
13%: [19]
0%: [10] | [24]
6.2%: [14]
10%: [15]
0.75%: [27]
2.7%: [18]
17%: [12] | [22] | [29]
2.5%: [8]
7.1%: [23]
not listed: [31] | [32] | [33] | [34] | [35]
100%: all other assays above

CS(=O)(=O)N1CCN(Cc2cc3nc(-c4cccc5[nH]ncc45)nc(N4CCOCC4)c3s2)CC1
not listed: [24]
100%: all other assays above

CNC(=O)c1ccc(Nc2cc(Nc3ccccc3S(=O)(=O)C(C)C)c3cc[nH]c3n2)nc1
1.3%: [3]
26%: [9]
29%: [5]
18%: [19]
2%: [12]
7.4%: [2]
3%: [21]
22%: [16]
0.95%: [10] | [26]
1.2%: [15]
0.15%: [24]
10%: [23]
4.4%: [29]
5.2%: [6]
2.9%: [18]
3.8%: [13]
0.25%: [7]
1%: [25]
0.85%: [30]
not listed: [31] | [32] | [33]
100%: all other assays above

C=CC(=O)Nc1ccc(CN(C(=O)Nc2c(Cl)c(OC)cc(OC)c2Cl)c2cc(Nc3ccc(N4CCN(C)CC4)cc3)ncn2)cc1
0.6%: [13]
6.6%: [7]
0.1%: [5]
0.35%: [35]
12%: [30]
1.7%: [25]
not listed: [31] | [32] | [33]
100%: all other assays above

CCN(CC)CCCCNc1ncc2cc(-c3cc(OC)cc(OC)c3)c(NC(=O)NC(C)(C)C)nc2n1
26%: [13]
6%: [5]
not listed: [1] | [2] | [10] | [11] | [15] | [26] | [31] | [32] | [33] | [35]
100%: all other assays above
